Test results as given in patent publication US9550775B2, “Substituted triazolopyridines and methods of use thereof” (GENENTECH, INC., priority 2013, dated 2017).

Target: hNav1.7 (Homo sapiens (Human), UniProt Q15858)
Experiment: Tritiated sulfonamide competitive binding to membranes from cells expressing hNav1.7 and the β1 subunit;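 note: displacement of the tritiated ligand from recombinant cell membranes, read by liquid scintillation counting of filter-bound radioactivity, nonspecific binding defined with 1 µM unlabelled compound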
Conditions: 100 pM [3H]compound, 18 h, room temperature; inactivated state of NaV1.7 membrane binding; read-out: NaV1.7 Ligand Binding Assay (IC50)

Chain of hNav1.7 (Q15858 other isoform, or with tags, fused parts or gaps): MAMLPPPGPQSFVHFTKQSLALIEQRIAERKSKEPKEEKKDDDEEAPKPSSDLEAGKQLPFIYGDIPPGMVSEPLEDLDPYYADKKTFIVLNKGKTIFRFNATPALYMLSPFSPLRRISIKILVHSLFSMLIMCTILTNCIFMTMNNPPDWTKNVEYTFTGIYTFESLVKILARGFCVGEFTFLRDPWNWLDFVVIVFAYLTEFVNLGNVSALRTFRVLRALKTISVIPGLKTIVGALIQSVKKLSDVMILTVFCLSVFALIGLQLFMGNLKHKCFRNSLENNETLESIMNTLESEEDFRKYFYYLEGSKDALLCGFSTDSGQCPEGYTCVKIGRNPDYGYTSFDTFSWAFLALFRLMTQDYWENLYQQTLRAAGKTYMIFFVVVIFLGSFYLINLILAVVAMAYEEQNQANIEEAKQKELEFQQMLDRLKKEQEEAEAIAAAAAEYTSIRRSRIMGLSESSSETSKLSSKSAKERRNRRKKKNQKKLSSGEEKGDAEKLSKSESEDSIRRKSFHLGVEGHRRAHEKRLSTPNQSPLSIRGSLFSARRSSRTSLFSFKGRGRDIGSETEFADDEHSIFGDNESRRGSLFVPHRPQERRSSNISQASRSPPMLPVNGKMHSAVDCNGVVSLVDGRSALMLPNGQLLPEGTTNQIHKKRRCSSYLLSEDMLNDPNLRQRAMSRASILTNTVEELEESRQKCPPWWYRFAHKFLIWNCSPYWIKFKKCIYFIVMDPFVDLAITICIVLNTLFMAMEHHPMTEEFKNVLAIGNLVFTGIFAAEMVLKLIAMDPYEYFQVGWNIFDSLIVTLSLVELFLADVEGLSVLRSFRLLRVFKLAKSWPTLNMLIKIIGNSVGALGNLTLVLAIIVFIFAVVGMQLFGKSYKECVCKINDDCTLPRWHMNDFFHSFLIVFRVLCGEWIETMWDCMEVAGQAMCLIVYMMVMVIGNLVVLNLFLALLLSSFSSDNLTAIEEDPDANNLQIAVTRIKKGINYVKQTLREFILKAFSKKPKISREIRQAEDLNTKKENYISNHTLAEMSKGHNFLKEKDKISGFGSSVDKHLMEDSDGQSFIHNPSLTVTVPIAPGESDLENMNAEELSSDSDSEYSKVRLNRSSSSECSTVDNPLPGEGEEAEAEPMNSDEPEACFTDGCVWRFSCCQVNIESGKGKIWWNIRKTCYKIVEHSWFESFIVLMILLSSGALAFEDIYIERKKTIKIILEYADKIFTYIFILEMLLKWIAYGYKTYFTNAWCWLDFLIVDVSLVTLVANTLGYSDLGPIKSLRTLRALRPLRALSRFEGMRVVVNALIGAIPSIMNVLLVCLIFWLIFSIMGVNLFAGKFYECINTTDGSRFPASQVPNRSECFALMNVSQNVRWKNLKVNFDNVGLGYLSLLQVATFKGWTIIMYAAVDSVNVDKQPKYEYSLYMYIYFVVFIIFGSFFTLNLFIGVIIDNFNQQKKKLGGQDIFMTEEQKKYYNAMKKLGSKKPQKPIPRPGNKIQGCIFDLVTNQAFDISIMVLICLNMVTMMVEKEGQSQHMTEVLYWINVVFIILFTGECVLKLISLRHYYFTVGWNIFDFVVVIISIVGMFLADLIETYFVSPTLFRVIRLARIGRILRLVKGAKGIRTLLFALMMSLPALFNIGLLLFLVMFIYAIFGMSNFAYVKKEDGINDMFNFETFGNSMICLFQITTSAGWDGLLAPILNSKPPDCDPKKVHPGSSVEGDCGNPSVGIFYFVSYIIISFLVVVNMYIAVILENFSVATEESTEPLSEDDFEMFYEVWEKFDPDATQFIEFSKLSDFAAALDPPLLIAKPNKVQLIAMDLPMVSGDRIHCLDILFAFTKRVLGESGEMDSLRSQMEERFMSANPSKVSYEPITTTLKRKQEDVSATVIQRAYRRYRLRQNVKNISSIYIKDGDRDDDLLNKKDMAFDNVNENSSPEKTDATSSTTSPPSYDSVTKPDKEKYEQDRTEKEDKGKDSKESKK
Chain of hNav1.7 (Q07699 19-218 partner): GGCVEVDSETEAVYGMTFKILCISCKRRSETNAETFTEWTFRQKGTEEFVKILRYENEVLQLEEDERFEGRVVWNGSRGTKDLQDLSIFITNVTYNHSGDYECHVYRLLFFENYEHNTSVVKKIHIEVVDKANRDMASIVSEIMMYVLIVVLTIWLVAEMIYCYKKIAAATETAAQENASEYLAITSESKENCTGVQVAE

SMILES	IC50 [nM]
CCS(=O)(=O)Nc1nnc2cc(OCC34CC5CC(CC(C5)C3)C4)c(C3CC3)cn12 [Example 72, N-(7-((3r,5r,7r)-adamantan-1-ylmethoxy)-6-cyclopropyl-[1,2,4]triazolo[4,3-a]pyridin-3-yl)ethanesulfonamide]	4
CC1(COc2cc3nnc(NS(C)(=O)=O)n3cc2C2CC2)CCCCC1 [Example 14, N-(6-cyclopropyl-7-((1-methylcyclohexyl)methoxy)-[1,2,4]-triazolo[4,3-a]pyridin-3-yl)methanesulfonamide]	14
C=Cc1cn2c(NS(C)(=O)=O)nnc2cc1OCC1(C)CCCCC1 [Example 62, N-(7-((1-methylcyclohexyl)methoxy)-6-vinyl-[1,2,4]triazolo-[4,3-a]pyridin-3-yl)methanesulfonamide]	65
CS(=O)(=O)Nc1nnc2cc(OCC3(C(F)(F)F)CCCC3)c(C3CC3)cn12 [Example 37]	45.2
O=S(=O)(Nc1nnc2cc(COc3ccc(Cl)c(Cl)c3)c(C3CC3)cn12)C1CC1 [Example 39]	6.83
CS(=O)(=O)Nc1nnc2cc(COc3cc(Cl)cc(OC(F)(F)F)c3)c(C3CC3)cn12 [Example 98, N-(7-((3-chloro-5-(trifluoromethoxy)phenoxy)methyl)-6-cyclopropyl-[1,2,4]triazolo[4,3-a]pyridin-3-yl)methanesulfonamide]	3
CS(=O)(=O)Nc1nnc2cc(OC[C@H]3CC[C@H](C(F)(F)F)CC3)c(C3CC3)cn12 [Example 68, N-(6-cyclopropyl-7-(((trans)-4-(trifluoromethyl)cyclohexyl)methoxy)-[1,2,4]triazolo[4,3-a]pyridin-3-yl)methanesulfonamide]	23
CS(=O)(=O)Nc1nnc2cc(OCCC34CC5CC(CC(C5)C3)C4)c(C3CC3)cn12 [Example 76, N-(7-(2-43r,5r,7r)-adamantan-1-yl)ethoxy)-6-cyclopropyl-[1,2,4]triazolo[4,3-a]pyridin-3-yl)methanesulfonamide]	9
C[C@H](c1cc(Cl)cc(Cl)c1)N1CCC(C)(COc2cc3nnc(NS(C)(=O)=O)n3cc2C2CC2)CC1 [Example 118, (R)—N-(6-cyclopropyl-7-((1-(1-(3,5-dichlorophenyl)ethyl)-4-methylpiperidin-4-yl)methoxy)-[1,2,4]triazolo[4,3-a]pyridin-3-yl)methanesulfonamide]	14
CS(=O)(=O)Nc1nnc2cc(OC[C@H]3CC[C@H](C)CC3)c(Br)cn12 [Example 87]	87
CC1(C)[C@H]2CC[C@H](COc3cc4nnc(NS(=O)(=O)N5CCC5)n4cc3C3CC3)[C@@H]1C2 [Example 30]	6.75
Cc1cc(Cl)cc(OCc2cc3nnc(NS(C)(=O)=O)n3cc2C2CC2)c1 [Example 102, N-(7-((3-chloro-5-methylphenoxy)methyl)-6-cyclopropyl-[1,2,4]triazolo[4,3-a]pyridin-3-yl)methanesulfonamide]	7
O=S(=O)(Nc1nnc2cc(OC3C4CC5CC(C4)CC3C5)c(C3CC3)cn12)C1CC1 (centres unmarked) [Example 79, N-(7-(adamantan-2-yloxy)-6-cyclopropyl-[1,2,4]triazolo-[4,3-a]pyridin-3-yl)cyclopropanesulfonamide]	66
CC1(C)[C@H]2CC[C@H](COc3cc4nnc(NS(=O)(=O)N5CCC5)n4cc3C3CC3)[C@@H]1C2 [Example 85, N-(6-cyclopropyl-7-(((1S,2S,5S)-6,6dimethylbicyclo [3.1.1]heptan-2-yl)methoxy)-[1,2,4]triazolopyridin-3-yl)azetidine-1-sulfonamide]	7
CCS(=O)(=O)Nc1nnc2cc(OCC34CC5CC(CC(C5)C3)C4)c(C3CC3)cn12 [Example 17, N-(7-((3r,5r,7r)-adamantan-1-ylmethoxy)-6-cyclopropyl-[1,2,4]triazolo[4,3-a]pyridin-3-yl)ethanesulfonamide]	4.26
Cc1cc(Cl)cc(OCc2cc3nnc(NS(=O)(=O)C4CC4)n3cc2C2CC2)c1 [Example 48, N-(7-((3-chloro-5-methylphenoxy)methyl)-6-cyclopropyl-[1,2,4]triazolo[4,3-a]pyridin-3-yl)cyclopropanesulfonamide]	6.33
O=S(=O)(Nc1nnc2cc(OC3CCC4(CCCCC4)CC3)c(C3CC3)cn12)C1CC1 [Example 90, N-(6-cyclopropyl-7-(spiro[5.5]undecan-3-yloxy)-[1,2,4]triazolo[4,3-a]pyridin-3-yl)cyclopropanesulfonamide]	51
C[C@H](c1cc(Cl)cc(Cl)c1)N1CCC(COc2cc3nnc(NS(C)(=O)=O)n3cc2C2CC2)CC1 [Example 119, (R)—N-(6-cyclopropyl-7-((1-(1-(3,5-dichlorophenyl)ethyl)piperidin-4-yl)methoxy)-[1,2,4]triazolo[4,3-a]pyridin-3-yl)methanesulfonamide]	23
CS(=O)(=O)Nc1nnc2cc(COc3cc(Cl)cc(OC(F)(F)F)c3)c(C3CC3)cn12 [Example 43, N-(7-((3-chloro-5-(trifluoromethoxy)phenoxy)methyl)-6-cyclopropyl-[1,2,4]triazolo[4,3-a]pyridin-3-yl)methanesulfonamide]	2.5
CC1(C)[C@H]2CC[C@H](COc3cc4nnc(NS(C)(=O)=O)n4cc3C3CC3)[C@@H]1C2 [Example 28, N-(6-cyclopropyl-7-(((1S,2S,5S)-6,6-dimethylbicyclo[3.1.1]heptan-2-yl)methoxy)-[1,2,4]triazolo[4,3-a]pyridin-3-yl)methanesulfonamide]	2.6
O=S(=O)(Nc1nnc2cc(O[C@@H]3CCCN(Cc4ccc(F)cc4Cl)C3)c(C3CC3)cn12)C1CC1 [Example 113, (R)—N-(7-((1-(2-chloro-4-fluorobenzyl)piperidin-3-yl)oxy)-6-cyclopropyl-[1,2,4]triazolo[4,3-a]pyridin-3-yl)cyclopropanesulfonamide]	34
CC1(C)C2CCC1(C)[C@H](Oc1cc3nnc(NS(C)(=O)=O)n3cc1C1CC1)C2 (stereo in doubt) [Example 31, N-(6-cyclopropyl-7-(((1S,2R,4R)-1,7,7-trimethylbicyclo-[2.2.1]heptan-2-yl)oxy)-[1,2,4]triazolo[4,3-a]pyridin-3-yl)methanesulfonamide]	260
CC1(C)C2CC[C@]1(C)[C@H](Oc1cc3nnc(NS(C)(=O)=O)n3cc1C1CC1)C2 (stereo in doubt) [Example 86]	260
O=S(=O)(Nc1nnc2cc(CN3CCC(Oc4cc(Cl)cc(Cl)c4)CC3)c(C3CC3)cn12)C1CC1 [Example 124, N-(6-cyclopropyl-7-((4-(3,5-dichlorophenoxy)piperidin-1-yl)methyl)-[1,2,4]triazolo[4,3-a]pyridin-3-yl)cyclopropanesulfonamide]	320
Cc1cc(Cl)cc(OCc2cc3nnc(NS(C)(=O)=O)n3cc2C2CC2)c1 [Example 47, N-(7-((3-chloro-5-methylphenoxy)methyl)-6-cyclopropyl-[1,2,4]triazolo[4,3-a]pyridin-3-yl)methanesulfonamide]	7.29
O=S(=O)(Nc1nnc2cc(OCCC34CC5CC(CC(C5)C3)C4)c(C3CC3)cn12)C1CC1 [Example 77, N-(7-(2-((3r,5r,7r)-adamantan-1-yl)ethoxy)-6-cyclopropyl-[1,2,4]triazolo[4,3-a]pyridin-3-yl)cyclopropanesulfonamide]	7
